According to US7364842B2, “Methods of identifying modulators of human retrovirus replication” (IRM, LLC, priority 2003, dated 2008):

Experiments:
[1] = tested on: Moloney murine leukemia virus (MLV); conditions: background statement; cited from earlier work
[2] = tested on: human immunodeficiency virus (HIV); conditions: Chao et al., J. Biol. Chem. 2000; cited from earlier work
HIV-1 = conditions: siRNA-transfected Magi cells; versus Scramble siRNA control
Protocol: Magi cells were transiently transfected with an siRNA targeting Pbx1 or Pin1. A Scramble siRNA was used as a negative control. Reverse transcriptase activity was then assessed.
Magi indicator cells were also used to determine the effect of HMG I proteins on the transcription of retroviral genes. Magi cells were transiently transfected with an siRNA targeting HMG I-C or HMG I/Y. A Scramble siRNA was used as a negative control. […] For the western blot analysis, cells were transiently transfected with the siRNAs targeting HMGI/Y (FIG. 9), HMG I-C (FIG. 10) or firefly luciferase (control siRNA). Magi cells were lysed 48-60 hours after transfection and analyzed by western blot using antibodies against HMGI/Y, HMG I-C or γ-tubulin proteins. The γ-tubulin levels were used as the loading controls.

recombinant HIV = experiment: Recombinant HIV assay, luciferase reporter in 293T cells; assay type: cell-based, HIV-1; conditions: 293T cells transfected with siRNA, infected with recombinant HIV after 24 hours, measured after 48 hrs; versus Scramble siRNA
Protocol: A recombinant HIV assay was used to assess the role of HMG I proteins in HIV replication. Pseudotyped recombinant HIV particles were generated by transient transfection of 293T cells using a three-plasmid expression system (FIGS. 5a and 5b).
A Scramble siRNA was used as a negative control After 24 hours, the transfected cells were infected with recombinant HIV. After 48 hrs, luciferase activity was measured.

[3] = tested on: HIV-1 LTR-driven β-gal reporter in Magi cells; experiment: Magi indicator cell β-galactosidase assay (HIV LTR-mediated gene expression); assay type: cell-based; conditions: Magi cells transiently transfected with siRNA; versus Scramble siRNA control
Excerpt: (§1) The ability of Pbx 1 to mediate transcription of genes of retroviruses that infect human cells was investigated using Magi indicator cells (e.g., Kimpton and Emerman, J. Virol. 66: 2232-2239, 1992). The MAGI (Multinuclear Activation of a Galactosidase Indicator) cell line was derived from parental HeLa cells by introducing genes for CD4 and an HIV-1 LTR-driven β-gal reporter with an amphotropic retrovirus vector. This cell line exploits the ability of HIV-1 tat to transactivate the expression of a β-galactosidase reporter gene driven by the HIV-LTR. […] The β-galactosidase activity was then assessed in the cultures. […] Western blot analysis of Pbx1 siRNA-transfected Magi cells confirmed that levels of Pbx1 protein were reduced in comparison to control cells transfected with firefly luciferase siRNA, which served as a negative control (FIG. 2). […] The γ-tubulin was used as the loading control.

HMG I-C protein = experiment: Western blot of HMG I-C protein in siRNA-treated Magi cells; assay type: cell-based; conditions: Magi cells lysed 48-60 hours after transfection; versus luciferase siRNA control
Pbx1 protein = experiment: Western blot of Pbx1 protein in siRNA-transfected Magi cells; assay type: cell-based; conditions: Magi cells lysed 48-60 hours after transfection; versus firefly luciferase siRNA control
Excerpt: as §1

HMG I/Y protein = experiment: Western blot of HMG I/Y protein in siRNA-treated Magi cells; assay type: cell-based; conditions: Magi cells lysed 48-60 hours after transfection; versus luciferase siRNA control

Question: For CN1CC[C@H](c2c(O)cc(O)c3c(=O)cc(-c4ccccc4Cl)oc23)[C@H](O)C1 [flavopiridol], which MLV transcription events [1] is on record?
Answer: block

Question: What about the anti-HIV activity [2] of the same molecule?
Answer: very potent

Question: With CC(C)[C@H](CO)Nc1nc(Nc2cccc(Cl)c2)c2ncn(C(C)C)c2n1 [purvalanol A] as the molecule, how does the MLV transcription events [1] read?
Answer: block

Question: What does the source list for “AAGCAGCUCAAAAGAAAGCAG (chemistry not given here) [HMG I-C]”?
Answer: activity of HIV reverse transcriptase (HIV-1): reduced; luciferase reporter activity (recombinant HIV): reduced; β-gal activity [3]: inhibited; levels of HMG I-C protein (HMG I-C protein): reduced

Question: For “AAGCCUGCCUUGUUUAAUGUG (chemistry not given here) [Pbx1 siRNA]”, which “activity of HIV reverse transcriptase” value (HIV-1) is on record?
Answer: greatly reduced

Question: What about the β-gal activity [3] of the same molecule?
Answer: reduced

Question: And the “levels of Pbx1 protein” value (Pbx1 protein)?
Answer: reduced

Question: For “AAGUGCCAACACCUAAGAGAC (chemistry not given here) [HMG I/Y]”, which “activity of HIV reverse transcriptase” value (HIV-1) is on record?
Answer: reduced

Question: And the β-gal activity [3]?
Answer: inhibited

Question: And the “levels of HMG I/Y protein” value (HMG I/Y protein)?
Answer: reduced

Question: Which MLV transcription events [1] does the source give for methoxy-roscovitine here?
Answer: block
